Laboratory results published in patent US20050049299A1, “Selective inhibitors of stat-3 activation and uses thereof” (priority 2003, published 2005).

Assays:
MM.1S and MM.1R cells = experiment: Cell growth of dexamethasone-sensitive and dexamethasone-resistant MM cells (MTT); assay type: cell-based, human; details: curcumin 10 μM, 3 days
Experimental: MM.1S and MM.1R cells were cultured with dexamethasone (1 μM) in the absence or presence of curcumin (10 μM) for 3 days and cell viability was checked by the MTT method. Results are shown as mean (±s.d. indicated by error bar) of percent cell growth of triplicate cultures compared to the untreated control.
The antiproliferative effects of curcumin against different multiple myeloma cell lines were determined by the MTT dye uptake method as described earlier (28). Briefly, the cells (5000/well) were incubated in triplicate in a 96-well plate in the presence or absence of indicated test samples in a final volume of 0.1 ml for 24 h at 37° C. Thereafter, 0.025 ml of MTT solution (5 mg/ml in PBS) was added to each well. After a 2-h incubation at 37° C., 0.1 ml of the extraction buffer (20% SDS, 50% dimethylformamide) was added and the extract incubated overnight at 37° C. for solubilization of formazan crystals. The OD at 570 nm was measured using a 96-well multiscanner autoreader (Dynatech MR 5000), with the extraction buffer serving as blank. Percent cell viability cell viability was calculated using the following formula: Percent cell viability=(OD of the experiment samples/OD of the control)×100.
Multiple myeloma treated with dex gradually develops resistance to this drug.

[1] = tested on: STAT3 nuclear translocation; experiment: STAT3 distribution in HNSCC cells (immunocytochemistry, Alexa fluorochrome); assay type: cell-based, human; details: MDA 1986LN, MDA 686LN and JMAR cells, 50 μM, 2 hrs
Experimental: MDA 1986LN, MDA 686LN and JMAR cells were incubated with either media alone or with curcumin (50 μM) for 2 hrs and then analyzed by immunocytochemistry using Alexa fluorochrome for the distribution of STAT3 (original magnification ×200). […] The same procedure as mentioned above was performed on the same cells and the p-STAT3 analyzed by immunocytochemistry using horse radish peroxidase stain (original magnification ×200).
Since STAT3 retained in the cytoplasm under resting conditions and in the non-phosphorylated state translocates to nucleus when phosphorylated, the effect of curcumin on the distribution of STAT3 was examined. To accomplish this, curcumin-treated and untreated MDA 1986LN, MDA 686LN and JMAR cells were analyzed for distribution of STAT3 by immunocytochemistry using ALEXA fluorochrome.

For `COc1cc(/C=C/C(=O)CC(=O)/C=C/c2ccc(O)c(OC)c2)ccc1O` [curcumin, diferuloylmethane], the “proliferation of dex-resistant and dex-sensitive multiple myeloma cells” value (MM.1S and MM.1R cells) was “inhibited the proliferation of dex-resistant and dex-sensitive multiple myeloma cells similarly” and the “translocation of STAT3 to the nucleus” value [1] was “prevented the translocation of STAT3 to the nucleus”.
